Results published in ChEMBL document CHEMBL3232715, “Recent progress in the identification of BRAF inhibitors as anti-cancer agents” (Eur J Med Chem, 2014).

Legend:
[1] = target: T1, Serine/threonine-protein kinase B-raf (Homo sapiens, UniProt P15056, V600E); experiment: Inhibition of BRAF V600E mutant-mediated MEK phosphorylation in human HT-29 cells by Western blotting analysis; assay type: cell-based
[2] = target: T2, Serine/threonine-protein kinase B-raf (Homo sapiens, UniProt P15056); experiment: Inhibition of BRAF (unknown origin)
[3] = target: T2, Serine/threonine-protein kinase B-raf; experiment: Inhibition of N-terminal 6X-His tagged human wild-type BRAF by ELISA
[4] = target: T1, Serine/threonine-protein kinase B-raf; experiment: Inhibition of N-terminal 6X-His tagged human BRAF V600E mutant (433 to 726) by ELISA
A-375 = experiment: Antiproliferative activity against human A375 cells; assay type: functional, cell-based
[5] = Antiproliferative activity against human WM266.4 cells; assay type: functional, cell-based; conditions: WM 266-4
[6] = target: T1, Serine/threonine-protein kinase B-raf; experiment: Inhibition of BRAF V600E mutant (unknown origin)
[7] = target: T2, Serine/threonine-protein kinase B-raf; experiment: Inhibition of BRAF (unknown origin)-mediated ERK phosphorylation

T2 sequence (P15056 whole entry): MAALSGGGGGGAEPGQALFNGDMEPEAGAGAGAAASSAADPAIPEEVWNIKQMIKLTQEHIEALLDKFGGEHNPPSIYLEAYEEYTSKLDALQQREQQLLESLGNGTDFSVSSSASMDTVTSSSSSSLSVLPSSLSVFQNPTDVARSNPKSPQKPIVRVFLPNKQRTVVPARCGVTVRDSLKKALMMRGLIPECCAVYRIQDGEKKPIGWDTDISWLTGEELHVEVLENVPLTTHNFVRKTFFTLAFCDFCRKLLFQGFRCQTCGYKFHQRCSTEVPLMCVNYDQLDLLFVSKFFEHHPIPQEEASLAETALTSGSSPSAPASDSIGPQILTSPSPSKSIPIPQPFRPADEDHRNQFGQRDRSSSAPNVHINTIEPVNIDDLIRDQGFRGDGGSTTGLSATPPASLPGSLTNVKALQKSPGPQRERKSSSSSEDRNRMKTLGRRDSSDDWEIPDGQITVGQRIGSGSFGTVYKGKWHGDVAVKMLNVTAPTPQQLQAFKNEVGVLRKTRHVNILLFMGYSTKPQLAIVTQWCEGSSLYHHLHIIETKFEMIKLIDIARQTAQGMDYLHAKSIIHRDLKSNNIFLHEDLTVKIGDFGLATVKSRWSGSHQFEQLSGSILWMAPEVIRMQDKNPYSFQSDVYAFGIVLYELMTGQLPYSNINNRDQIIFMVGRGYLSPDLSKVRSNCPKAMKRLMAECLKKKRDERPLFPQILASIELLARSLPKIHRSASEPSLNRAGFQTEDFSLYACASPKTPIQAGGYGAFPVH
T1 sequence (P15056 2-766 V600E limits assumed): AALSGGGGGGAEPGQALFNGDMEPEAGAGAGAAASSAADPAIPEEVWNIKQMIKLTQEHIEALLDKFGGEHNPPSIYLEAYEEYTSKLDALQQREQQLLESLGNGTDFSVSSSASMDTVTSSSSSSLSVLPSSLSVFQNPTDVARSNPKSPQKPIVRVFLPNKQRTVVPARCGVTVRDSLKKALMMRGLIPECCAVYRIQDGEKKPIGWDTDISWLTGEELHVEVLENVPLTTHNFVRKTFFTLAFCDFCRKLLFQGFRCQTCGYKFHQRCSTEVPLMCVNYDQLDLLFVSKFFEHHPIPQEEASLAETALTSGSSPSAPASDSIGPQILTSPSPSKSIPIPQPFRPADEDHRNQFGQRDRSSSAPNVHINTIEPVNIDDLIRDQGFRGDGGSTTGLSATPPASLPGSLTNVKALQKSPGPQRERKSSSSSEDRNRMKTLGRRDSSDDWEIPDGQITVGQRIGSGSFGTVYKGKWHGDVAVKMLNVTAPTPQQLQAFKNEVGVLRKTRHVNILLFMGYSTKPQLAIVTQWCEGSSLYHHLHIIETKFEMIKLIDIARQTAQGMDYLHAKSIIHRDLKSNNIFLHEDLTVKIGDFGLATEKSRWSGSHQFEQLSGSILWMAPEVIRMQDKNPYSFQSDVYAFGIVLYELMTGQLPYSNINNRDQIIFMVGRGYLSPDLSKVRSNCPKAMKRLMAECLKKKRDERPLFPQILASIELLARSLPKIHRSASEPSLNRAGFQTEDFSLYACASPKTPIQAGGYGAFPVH

O=C(Nc1cccc(Oc2ccc3nc(NC(=O)C4CCOCC4)cn3n2)c1)c1cccc(C(F)(F)F)c1
IC50 [1]: 3800 nM
IC50 [2]: 43 nM

O=C1NC(=S)NC(=O)C1=Cc1ccc(-c2ccc3c(c2)OCO3)o1
IC50 [3]: 1150 nM
IC50 [4]: 300 nM

O=C(Nc1ccccc1)N(Cc1ccc(Br)cc1O)c1cc(-c2ccccc2)[nH]n1
IC50 (A-375): 1320 nM
IC50 [5]: 1500 nM
IC50 [6]: 190 nM

O/N=C1\CCc2cc(-c3cn(C4CCNCC4)nc3-c3ccncc3)ccc21
IC50 [7]: 9 nM
